Measurements published in patent US20040034879A1, “Mammalian sex selection using genetic modification” (priority 2000, published 2004).

How the values were obtained:
[1] = tested on: Human 293 cells; assay: Luciferase activity after transient co-transfection with pCMV-Luc; format: cell-based; conditions: 48 hours after co-transfection with pBS-CMV-tTA-Barnase-Barstar and pCMV-Luc; tetracycline pretreatment, 2 μg/ml
Procedure: Cell culture and transient transfection: Human 293 cells from embryonal kidney were maintained at 37° C., 5% CO2 in α-MEM supplemented with 10% fetal bovine serum. Transfections by calcium phosphate co-precipitation were performed according to standard protocols. Transfections were carried out in 35 mm dishes, using 1 μg of plasmid together with 0.5 μg of pCMV-Luc or pCMV-GFP. Control trasfections contained 1 μg of empty pTRE plasmid DNA together with 0.5 μg of either pCMV-Luc or pCMV-GFP. Tetracycline was used at a concentration of 2 μg/ml, and added shortly after cells were transfected, unless otherwise indicated. All data were from three replicate plates and the experiments were repeated twice.
Luciferase activity: Twenty-four hours following transfection, media was removed, cells were washed with PBS and luciferase assays were performed as described in Yin et al (1996) with Promega luciferase assay system, using 10 μl lysate and 50 μl luciferase substrate. Activity was measured with a Turner TD-20e luminometer. Protein concentrations in different lysates were determined by Bradford assays (Bio-Rad), and luciferase activity per μg protein determined.

[2] = tested on: sperm comprising an X chromosome; assay: Sex of offspring sired by male mice carrying TP1-HSV tk (transgene (a)) on the X chromosome; format: in vivo, mouse; conditions: after two weeks of gancyclovir administration, crossed with non-transgenic female mice
Procedure: The mice transformed with transgene (a), as described above, express HSV tk on the X chromosome of maturing sperm. Gancyclovir. from about 5 to about 15 mg/kg body weight, is administered to transgenic mice expressing HSV tk via injection. Upon gancyclovir administration, HSV tk forms toxic metabolites that leads to the ablation of sperm comprising an X chromosome. The TP1 regulatory region is activated post-meiotically, so that Y bearing sperm are not effected. Thus, the transformed male mouse comprises exclusively Y bearing sperm and produces male offspring, upon gancyclovir administration. An exemplary gancyclovir administration regime comprises two weeks of administration prior to mating, thereby destroying X chromosome-bearing sperm prior to mating. Male mice carrying transgene HSV tk (transgene (a)) are crossed non-transgenic female mice. Without gancyclovir administration, half of the offspring are male and half are female. The female offspring carry the transgene on the X chromosome. After two weeks of gancyclovir administration, male mice carrying transgene (a) are crossed with non-transgenic female mice. The resulting offspring are all male.

SMILES: CN(C)[C@@H]1C(O)=C(C(N)=O)C(=O)[C@@]2(O)C(O)=C3C(=O)c4c(O)cccc4[C@@](C)(O)[C@H]3C[C@@H]12 [tetracycline]
- luciferase activity in cells treated with tetracycline versus those not treated [1]: ~6 fold

SMILES: Nc1nc(O)c2ncn(COC(CO)CO)c2n1 [gancyclovir]
- sex of the resulting offspring [2]: all male
